# Measured values as given in patent US12037333B2, “Pyridopyrazine and pyridotriazine inhibitors of influenza virus replication” (priority 2018, dated 2024).
# Tested on: Influenza type A (strain A/PR/8/34, ATCC VR-95)
# Test: Influenza antiviral assay: inhibition of virus-induced cytopathic effects (CPE) in MDCK cells, XTT dye reduction
# Assay type: cell-based
# Settings: Influenza A virus, H1N1 / PR/8, MDCK, 96 h, strain A/PR/8/34, MDCK cells, CPE inhibition at 4 days
row,Compound,EC50
1,CC1N(CC2CC2)C(=O)c2c(O)c(=O)ccn2N1C12c3ccccc3CC1Cc1c2ccc(F)c1F (stereo not shown) [Compound A128],250 to 375 nM
2,"O=C1c2c(O)c(=O)ccn2N(C23c4ccccc4CC2Cc2c3ccc(F)c2F)CN1CC1CCOCC1 (stereo not shown) [Compound A15, 1-(1,2-Difluoro-9a,10-dihydro-9H-indeno[1,2-a]inden-4b-yl)-5-hydroxy-3-(tetrahydro-pyran-4-ylmethyl)-2,3-dihydro-1H-pyrido[2,1-f][1,2,4]triazine-4,6-dione]",< 125 nM
3,CC(C)CN1C(=O)c2c(O)c(=O)ccn2N(C23c4ccccc4CC2Cc2c(F)cccc23)C1C (stereo not shown) [Compound A117],> 500 nM
4,"CN1CN(C23c4cccc(F)c4CC2Cc2c(F)cccc23)n2ccc(=O)c(O)c2C1=O (stereo not shown) [Compound A12, 1-(1,8-Difluoro-9a,10-dihydro-9H-indeno[1,2-a]inden-4b-yl)-5-hydroxy-3-methyl-2,3-dihydro-1H-pyrido[2,1-f][1,2,4]triazine-4,6-dione]",< 125 nM
5,CC(C)CN1C(=O)c2c(O)c(=O)ccn2N(C23c4ccccc4CC2Cc2c3ccc(F)c2F)C1C (stereo not shown) [Compound A127],> 500 nM
6,O=C1c2c(O)c(=O)ccn2N(C23c4ccccc4CC2Cc2c(Cl)cccc23)CN1C1CC1 (stereo not shown) [Compound A93],125 to 250 nM
7,COC12Cc3ccccc3C1(N1CN(C)C(=O)c3c(O)c(=O)ccn31)c1ccccc1C2 (stereo not shown) [Compound A62],125 to 250 nM
8,CC1N(CCF)C(=O)c2c(O)c(=O)ccn2N1C12c3ccccc3CC1Cc1c(Cl)cccc12 (stereo not shown) [Compound A115],375 to 500 nM
9,CCN1CN(C23c4ccccc4CC2(C)Cc2ccccc23)n2ccc(=O)c(O)c2C1=O (stereo not shown) [Compound A147],< 125 nM
10,CC1N(CCF)C(=O)c2c(O)c(=O)ccn2N1C12c3ccccc3CC1Cc1c(F)cccc12 (stereo not shown) [Compound A121],125 to 250 nM
11,CC1N(C)C(=O)c2c(O)c(=O)ccn2N1C12c3ccccc3CC1Cc1c(Cl)cccc12 (stereo not shown) [Compound A94],250 to 375 nM
12,CC(C)CN1CN(C23c4ccccc4CC2Cc2c3ccc(F)c2F)n2ccc(=O)c(O)c2C1=O (stereo not shown) [Compound A149],< 125 nM
13,O=C1c2c(O)c(=O)ccn2N(C23c4ccccc4CC2Cc2c(F)cccc23)CN1CCCF (stereo not shown) [Compound A79],< 125 nM
14,CCCN1CN(C23c4cccc(F)c4CC2Cc2c(F)cccc23)n2ccc(=O)c(O)c2C1=O (stereo not shown) [Compound A153],< 125 nM
15,CCN1CN(C23c4ccccc4CC2(C)Cc2cc(F)ccc23)n2ccc(=O)c(O)c2C1=O (stereo not shown) [Compound A116],< 125 nM
16,CCC1N(C)C(=O)c2c(O)c(=O)ccn2N1C12c3ccccc3CC1Cc1ccccc12 (stereo not shown) [Compound A166],< 125 nM
17,"O=C1c2c(O)c(=O)ccn2N(C23c4ccccc4CC2Cc2c3ccc(F)c2F)CN1C1CCC1 (stereo not shown) [Compound A92, 3-Cyclobutyl-1-(1,2-difluoro-9a,10-dihydroindeno[1,2-a]inden-4b(9H)-yl)-5-hydroxy-2,3-dihydro-1H-pyrido[2,1-f][1,2,4]triazine-4,6-dione]",250 to 375 nM
18,O=C1c2c(O)c(=O)ccn2N(C23c4ccccc4CC2Cc2c(Cl)cccc23)CN1CC1CC1 (stereo not shown) [Compound A108],250 to 375 nM
19,Cc1ccc2c(c1F)CC1Cc3ccccc3C21N1CN(C)C(=O)c2c(O)c(=O)ccn21 (stereo not shown) [Compound A85],125 to 250 nM
20,"CCN1CN(C23c4ccccc4CC2Cc2c3ccc(F)c2F)n2ccc(=O)c(O)c2C1=O (stereo not shown) [Compound A14, 1-(1,2-Difluoro-9a,10-dihydro-9H-indeno[1,2-a]inden-4b-yl)-3-ethyl-5-hydroxy-2,3-dihydro-1H-pyrido[2,1-f][1,2,4]triazine-4,6-dione]",< 125 nM
21,COCCN1CN(C23c4ccccc4CC2Cc2c(Cl)cccc23)n2ccc(=O)c(O)c2C1=O (stereo not shown) [Compound A101],125 to 250 nM
22,"O=C1c2c(O)c(=O)ccn2N(C23c4ccccc4CC2Cc2cc(F)c(F)cc23)CN1CCc1cccc(F)c1 (stereo not shown) [Compound A28, 1-(2,3-difluoro-9a,10-dihydroindeno[1,2-a]inden-4b(9H)-yl)-3-(3-fluorophenethyl)-5-hydroxy-2,3-dihydro-1H-pyrido[2,1-f][1,2,4]triazine-4,6-dione]",125 to 250 nM
